We go through four compounds from patent US4954637A, “Certain maleimide-N-alkylenecarboxylate-ortho-nitrobenzenesulfonic acid esters and derivatives useful for coupling biological materials” (Cetus Corporation, priority 1987, dated 1990).

Read-outs that look alike come from different tables or passages of the source.

One data set has as its system cells. Particulars: vs biotin-p-nitrophenyl ester; fluoresceinated avidin; cited from earlier work.
A further data set relates to polylysine. Particulars: over a 5 minute period; pH 7.4, room temperature.
For the next data set, the system named is bovine serum albumin. Particulars: pH 8.5; vs same ester of N-hydroxysuccinimide; cited from earlier work.
For data set [1], the system named is sheep red blood cells (SRBC). Briefly: Labelling of sheep red blood cells, Coulter EPICS V Cytofluorometer. Format: cell-based. The following applies: excitation at 360 nm. As to the method: Dansyl-sac-HNSA ester was prepared as described in Example 1A using molar equivalents of HNSA, dicyclohexylcarbodiimide and dansyl-ε-aminocaproic acid (from Sigma Chemicals). For use in coupling to sheep red blood cells (SRBC) the dansyl-sac-HNSA ester (50 mg) was prepared in 7 ml of 0.28M cacodylate buffer, pH 6.9.
Sheep red blood cells were washed 4 times (400×g. 8 minutes) in G-PBS buffer (5% α-D-glucose w/v in PBSCa-Mg). To 1 ml of packed red blood cells was added the 7 ml of dansyl-sac-HNSA ester dropwise with gentle mixing for 10 minutes at room temperature. The reaction was done in foil-wrapped glassware to protect against photodecomposition. Following the reaction the cells were washed in cold G-PBS buffer containing 1% heat inactivated (56° C., 30 minutes) FCS (fetal calf serum) until the supernatants were colorless (a minimum of 4 washes).
The dansyl-sac-HNSA labelled SRBC were monitored using a Coulter EPICS V Cytofluorometer immediately after labeling and at 24 hours. […] This translates to an increase in intensity 720 times over unlabeled cells.

For another data set, the system named is biotinylated polylysine. Briefly: Coupling of mal-sac-HNSA to biotinylated polylysine, then to HRP-SH. The following applies: over a 30 minute period; pH 7.4, room temperature.
A further data set deals with streptavidin. Details: species or system Streptomyces avidinii. Particulars: over the period measured; pH 7.4, room temperature. Here is the method:
A total of 0.26 mg (4.3×10^-3 μmoles) of streptavidin purified from Streptomyces avidinii by the method of Hoffman et al., PNAS. 77, 4666-4668 (1980) was dissolved in 1.0 ml of phosphate buffered saline at pH 7.4 to yield a total amine concentration of 6.93×10^-5 M (16NH2 /streptavidin). […] Good separation was achieved between the protein and the excess HNSA and unreacted HNSA ester. […] In this case 79% of the amino groups on streptavidin (12.9 out of 16.0) reacted.

Data set [2] is classed as physicochemical. Particulars: 50 μl of 4.8N NaOH added to aliquot in 1 ml pH 7.0 buffer. As to the method: About 0.5 mg of the purified mal-sac HNSA ester from Example IA was dissolved in 1 ml of distilled water.
The difference between the post-base and initial free HNSA concentration represents the concentration of ester. From the actual concentration of ester the amount of ester to be added to the protein solution to achieve the desired degree of substitution can be calculated.

Data set [3] relates to Horseradish peroxidase (HRP). Particulars: over a 30 minute period; pH 7.0, room temperature.
Data set [4] concerns bovine serum albumin (BSA). The following applies: for Concentration of Ester: diluted aliquot. As to the method: A total of 22 mg ([…]) of BSA (of molecular weight 66,296) was dissolved in 2.0 ml of 0.01M phoshate buffer at pH 7.5 to yield a total amino concentration of 1.0×10^-2 moles per liter (assuming 59 lysines/BSA molecule). A calculated amount mg. […] The reaction was carried out at room temperature. […]
It was found at 15 minutes of reaction time that 2.6×10^-3 moles/1 of the ester had reacted and thus 25.9% of the 59 ε-amino groups of BSA were presumably substituted. Thus, the product contained 16 mal-sac groups per molecule.

A short description of the next data set: Solubility in water. Format: physicochemical.
Data set [5] is described as follows: Stability in water and on storage. Particulars: no nucleophiles added. Format: physicochemical.

Protocol for biotinylated polylysine: Biotinylated Polylysine (0.6 ml; 73,000 D average mol. wt.) was adjusted to pH 7.4 with 0.015 ml of 2.5N NaOH. Approximately 5 mg of mal-sac-HNSA was added to the biotinylated polylysine and stirred at room temperature. Ten μl aliquots were removed from the mixture at timed intervals and diluted into 1.0 ml of 0.01M phosphate buffer at pH 7.0. The spectrum of each diluted aliquot was measured and the absorbance at 406 nm recorded. A total of 50 μl of 4.8N NaOH solution was then added to each aliquot, mixed, and the spectrum retaken.
After 30 minutes of incubation time, the reaction was stopped using a Sephadex G-25 column, and the high molecular weight (biotin)4-polylysine-(sac-mal)18 was well separated from excess HNSA and unreacted mal-sac-HNSA.

Consider `O=C1N[C@H]2[C@H](CS[C@H]2CCCCC(=O)Oc2ccc(S(=O)(=O)O)cc2[N+](=O)[O-])N1` [Biotin-HNSA Ester], for which the increase in fluorescence entry in the data set with cells is recorded as “much larger increase in fluorescence”. In the data set on polylysine, the reaction rate entry is recorded as “essentially linear”.

On to `O=C(CCCCCNc1ccc([N+](=O)[O-])cc1[N+](=O)[O-])Oc1ccc(S(=O)(=O)O)cc1[N+](=O)[O-]` [N-2,4-dinitrophenyl-6-aminocaproic acid ester of HNSA], for which the conjugation efficiency entry with bovine serum albumin was “more efficient than the same ester of N-hydroxysuccinimide”.

Consider `CN(C)c1cccc2c(S(=O)(=O)NCCCCCC(=O)Oc3ccc(S(=O)(=O)O)cc3[N+](=O)[O-])cccc12` [dansyl-sac-HNSA], for which the “increase in fluorescence intensity over unlabeled cells” value in data set [1] came to 720 times.

With `O=C(CCCCCN1C(=O)C=CC1=O)Oc1ccc(S(=O)(=O)O)cc1[N+](=O)[O-]` [mal-sac-HNSA, N-maleimido-6-aminocaproylHNSA], the reaction rate entry is recorded as “essentially linear” in the data set with biotinylated polylysine; “essentially linear” in the data set with streptavidin; “essentially linear” in data set [3]; “linear” in the data set with avidin (30 minutes, FIG. 3). For the same compound, the hydrolysis by hydroxide entry in data set [2] is on record as “rapidly hydrolyzed”. The “Concentration of Ester” value in data set [4] (0 minutes) is on record as 1.56 × 10^-4 moles/1; in [4] (5 minutes), 1.16 × 10^-4 moles/1; in data set [4] (9 minutes), 1.03 × 10^-4 moles/1; in data set [4] (14 minutes), 1.11 × 10^-4 moles/1. Besides, the ester reacted in data set [4] (15 minutes of reaction time) is 2.6×10^-3 moles/1. Also, in the data set “Solubility in water”, the solubility in water result was “dissolve fully in water”. Besides, the “Percent Ester Remaining” value with avidin (10 minutes, room temperature) is recorded as 81%. The stability in water result in data set [5] was “stable in water for several hours”.
